According to patent publication US8063101B2, “Carotenoid analogs and derivatives for the prevention of platelet aggregation” (Cardax Pharmaceuticals, Inc., priority 2007, dated 2011):
Read-outs that look alike come from different tables or passages of the source. One block for each molecule: values may come before it.

Key:
Aqueous dispersibility = format: physicochemical; conditions: USP-purified water; no heat, detergents, co-solvents
Text: In some embodiments, highly water-dispersible C40 carotenoid derivatives may include natural source RRR-lutein (β,ε-carotene-3,3′-diol) derivatives. Derivatives may be synthesized by esterification with inorganic phosphate and succinic acid, respectively, and subsequently converted to the sodium salts. Deep orange, evenly colored aqueous suspensions were obtained after addition of these derivatives to USP-purified water. […] Aqueous suspensions may be obtained without the addition of heat, detergents, co-solvents, or other additives.
Disodium disuccinate astaxanthin (DDA; see FIG. 1B) was synthesized from commercially available crystalline astaxanthin (Buckton Scott, India) as previously described in Frey, et al. (“The efficient synthesis of disodium disuccinate astaxanthin (Cardax).” Org Process Res Dev 8: 796-801, 2004.). The final product purity was 97% (as area under the curve) by HPLC analysis. DDA was dissolved directly in sterile-filtered deionized water. The maximum aqueous dispersibility of DDA is approximately 10 mM, or 8.64 mg/ml. Vehicle consisted of isotonic sterile 0.9% NaCl solution.

[1] = rat, in vivo
Description: In a another experiment, all-trans 3S,3′S-astaxanthin diester diglycinate dihydrochloride salt (hereinafter “ADG”); all-trans 3S,3′S-astaxanthin diester disarcosinate dihydrochloride salt (hereinafter “ADSa”); and ADL were administered orally to separate rats as a aqueous suspension containing 0.5% carboxymethylcellulose. A single dose that included 40 mg/kg of the carotenoid derivative was administered to each rat. (See FIG. 20, PK Study #CXPK07202). For each carotenoid derivative given to the rats in this example, the amount of all astaxanthin isomers, the amount of trans astaxanthin isomers, and the amount of cis astaxanthin isomers in the plasma was determined at predefined time intervals for 3 days (72 hours).
In another experiment, ADG; ADSa; and ADL were administered to separate rats intravenously as an aqueous solution. A single dose that included 5 mg/kg of the carotenoid derivative was administered to each rat. (See FIG. 20, PK Study #CXPK07202). For each carotenoid derivative given to the rats in this example, the amount of all astaxanthin isomers, the amount of trans astaxanthin isomers, and the amount of cis astaxanthin isomers in the plasma was determined at predefined time intervals for 3 days (72 hours).

[2] = Dog PK of astaxanthin derivatives (CXPK07402, 07404, 07405, 07406)
Description: In another experiment, ADL was administered to non-naïve beagle dogs orally (as an aqueous suspension containing 0.5% carboxymethylcellulose) and intravenously as an aqueous solution. Oral doses that included 10 mg/kg of the carotenoid derivative, 100 mg/kg of the carotenoid derivative, and 500 mg/kg of the carotenoid derivative were administered to each dog. The intravenous dosage was 5 mg/kg. (See FIG. 20, PK Study #CXPK07402). For each carotenoid derivative given to the dogs in this example, the amount of all astaxanthin isomers, the amount of trans astaxanthin isomers, and the amount of cis astaxanthin isomers in the plasma was determined at predefined time intervals for 3 days (72 hours).
In another experiment, ADL was administered to naïve beagle dogs orally (as an aqueous suspension containing 0.5% carboxymethylcellulose) twice a day for six days. Each oral dose included 75 mg/kg of the carotenoid derivative. (See FIG. 20, PK Study #CXPK07404). For each carotenoid derivative given to the dogs in this example, the amount of all astaxanthin isomers, the amount of trans astaxanthin isomers, and the amount of cis astaxanthin isomers in the plasma was determined at predefined time intervals for 6 days.
In another experiment, all-trans 3S,3′ S-astaxanthin diester di-beta-alanine dihydrochloride salt (hereinafter “ADA”); ADG; ADL; ADSa; and ADS were administered orally to separate non-naïve dogs as a aqueous suspension containing 0.5% carboxymethylcellulose. A single dose that included 20 mg/kg of the carotenoid derivative was administered to each dog. (See FIG. 20, PK Study #CXPK07405). For each carotenoid derivative given to the dogs in this example, the amount of all astaxanthin isomers was determined at predefined time intervals for 3 days (72 hours).
In another experiment, ADG or ADSa was administered to non-naïve beagle dogs orally (as an aqueous suspension containing 0.5% carboxymethylcellulose). Oral doses included either 50 mg/kg of the carotenoid derivative or 100 mg/kg of the carotenoid derivative. (See FIG. 20, PK Study #CXPK07406). For each carotenoid derivative given to the dogs in this example, the amount of all astaxanthin isomers, the amount of trans astaxanthin isomers, and the amount of cis astaxanthin isomers in the plasma was determined at predefined time intervals for 3 days (72 hours).

[3] = design: species or system rats; conditions: in vivo, po, 500 mg/kg
Description: In one experiment, astaxanthin; all-trans 3S,3'S-astaxanthin diester disuccinate disodium salt (hereinafter “ADS”); and all-trans 3S,3'S-astaxanthin diester […] tetrahydrochloride salt (hereinafter “ADL”) were administered orally to separate rats as a lipid suspension. A single dose that included 500 mg/kg of the carotenoid/carotenoid derivative was administered to each rat. (See FIG. 20, PK Study #CXPK07201). Plasma from each of the rats was collected 4 hours after ingestion and 8 hours after ingestion and all samples were analyzed by high performance liquid chromatography (“HPLC”). HPLC analysis was used to detect the presence of free underivatized carotenoid (e.g., in this example, astaxanthin) in the plasma. HPLC chromatograms were collected for each plasma sample taken.

vascular platelets = assay: Platelet-derived nitric oxide (NO) release after IP3 stimulation, NO nanosensor; format: cell-based, Wistar-Kyoto (WKY) rats
Description: Wistar-Kyoto (WKY) rats were anaesthetized and blood was collected directly from the heart using a 10 mL syringe that contained 3.8% sodium citrate (9:1, v v^−1). […] The platelet rich plasma (PRP) was then removed by aspiration. […] The number of platelets was counted and adjusted to 3.5×10^8 per mL with Tyrode-HEPES buffer. The platelets were incubated in an aggregometer with a NO nanosensor (working electrode) placed in the platelet suspension. […] All measurements of NO release were conducted in Hank's balanced salt solution (HBSS) at 37° C. The sensor operated with a three-electrode system: nanosensor (working electrode), saturated calomel electrode (reference electrode), and platinum wire (counter electrode, 0.5 mm diameter). The three electrodes were connected to a potentiostat/galvanostat PAR273. The baseline was stabilized after ˜20 s. With a nanoinjector, the test compounds were injected onto the surface of the cells following solubilization in buffer. In experiments with multiple compounds, the compounds were injected simultaneously. […] Data were acquired with the use of custom software. Amperograms (current vs. time curves) were recorded with a Guniry FAS1 Femtostat (Warminster, Pa.). The nanosensor for NO was calibrated using saturated solution (concentration 1.82 mM verified with the coulometric method). […] The data were presented as mean±S.D. for each of the triplicate measurements. The data (calculation and plotting) were transferred to Microcal Origin Software (OriginLab Corp., Northampton, Mass.). […] The NO concentration was calculated using current responses obtained from standard NO solution (prepared from […] stock solution, saturated aqueous NO solution).

[4] = test system: human umbilical vein endothelial cells (HUVEC); assay: Calcium ionophore (CaI)-stimulated total nitric oxide release from HUVEC; format: cell-based; conditions: 3S,3′S-AST 5.0 μM, clopidogrel 1.0 μM, alone or in combination; FIG. 5
Description: (§1) Human umbilical vein endothelial cells (HUVECs) were isolated into primary cultures from white female donors by Clonetics (San Diego, Calif.), essentially as described (Mason et al. 2005). All donors were reported to be healthy and none had pregnancy or prenatal complications. All measurements were recorded in vitro using a sensitive porphyrinic probe, also as previously described. HUVEC cells were grown in Ham's F12K medium with 2 mM L-glutamine adjusted to contain 1.5 g/L sodium bicarbonate and supplemented with 0.1 mg/mL heparin and 0.03-0.05 mg/mL endothelial cell growth supplement (ECGS) plus 10% fetal bovine serum. The HUVEC cells were kept in an atmosphere of elevated CO2 concentration (5%).
All measurements of NO release were conducted in Hank's balanced salt solution (HBSS) at 37° C. The sensor operated with a three-electrode system: nanosensor (working electrode), saturated calomel electrode (reference electrode), and platinum wire (counter electrode, 0.5 mm diameter). The three electrodes were connected to a potentiostat/galvanostat PAR273. […] The current (amps) proportional to the NO concentration was measured with the sensor, which operated in amperometric mode at a constant potential of 0.63 V. Data were acquired with the use of custom software. Amperograms (current vs. time curves) were recorded with a Guniry FAS1 Femtostat (Warminster, Pa.).

[5] = test system: human umbilical vein endothelial cells (HUVEC); assay: Calcium ionophore (CaI)-stimulated total peroxynitrite release from HUVEC; format: cell-based; conditions: 3S,3′S-AST 5.0 μM, clopidogrel 1.0 μM, alone or in combination; FIG. 6
Description: as §1

[6] = test system: human umbilical vein endothelial cells (HUVEC); assay: CaI-stimulated NO/OONO- release ratio from HUVEC; format: cell-based; conditions: 3S,3′S-AST 5.0 μM, clopidogrel 1.0 μM, alone or in combination; FIG. 7
Description: as §1

SMILES: CC1=C(/C=C/C(C)=C/C=C/C(C)=C/C=C/C=C(C)/C=C/C=C(C)/C=C/C2=C(C)C(=O)[C@@H](OC(=O)CN)CC2(C)C)C(C)(C)C[C@H](OC(=O)CN)C1=O.Cl.Cl (relative stereo) [ADG, all-trans 3S,3′S-astaxanthin diester diglycinate dihydrochloride salt]
absorption and metabolism to astaxanthin in plasma ([1]; iv, 5 mg/kg): absorbed by the rats and metabolized
absorption and metabolism to astaxanthin in plasma ([1]; po, 40 mg/kg): absorbed by the rats and metabolized
absorption and metabolism to astaxanthin in plasma ([2]; dog, in vivo, po, 20 mg/kg): absorbed by the dogs and metabolized

SMILES: CC(C=CC=C(C)C=CC1=C(C)C(=O)C(OC(=O)CCN)CC1(C)C)=CC=CC=C(C)C=CC=C(C)C=CC1=C(C)C(=O)C(OC(=O)CCN)CC1(C)C.Cl.Cl (stereo not drawn) [ADA, all-trans 3S,3′ S-astaxanthin diester di-beta-alanine dihydrochloride salt]
absorption and metabolism to astaxanthin in plasma ([2]; non-naïve dogs, single oral 20 mg/kg): absorbed by the dogs and metabolized

SMILES: COC(=O)[C@H](c1ccccc1Cl)N1CCc2sccc2C1 [clopidogrel, reference compound]
total NO release from vascular platelets (vascular platelets; IP3 stimulation, homochiral astaxanthin 5.0 μM, clopidogrel 1.0 μM, controls 6.6±0.3, mean±S.D.): 10.2±0.4 molecules NO×10^6/platelet
effect on CaI-stimulated total nitric oxide release from HUVEC [4]: did not significantly change
effect on CaI-stimulated total peroxynitrite (OONO−) release from HUVEC [5]: did not significantly change
effect on CaI-stimulated NO/OONO− release ratio from HUVEC [6]: did not significantly change

SMILES: CCC(C)(C)C(=O)O[C@H]1C[C@@H](C)C=C2C=C[C@H](C)[C@H](CC[C@@H]3C[C@@H](O)CC(=O)O3)[C@H]21 [simvastatin, reference compound]
effect on platelet-derived NO release (vascular platelets; 1.0 μM, IP3 1.0 μM, FIG. 11): no effect

Continued, values first:

aqueous dispersibility (Aqueous dispersibility): 2.85 mg/mL
SMILES: CC(C=CC=C(C)C=CC1=C(C)CC(OC(=O)CCC(=O)[O-])CC1(C)C)=CC=CC=C(C)C=CC=C(C)C=CC1C(C)=CC(OC(=O)CCC(=O)[O-])CC1(C)C.[Na+].[Na+] (centres unmarked)

free astaxanthin in rat plasma [3]: significant amount
absorption and metabolism to astaxanthin in plasma ([1]; iv, 5 mg/kg): absorbed by the rats and metabolized
absorption and metabolism to astaxanthin in plasma ([1]; po, 40 mg/kg): absorbed by the rats and metabolized
absorption and metabolism to astaxanthin in plasma ([2]; dog, in vivo, po, 20 mg/kg): absorbed by the dogs and metabolized
absorption and metabolism to astaxanthin in plasma ([2]; dog, in vivo, po, 75 mg/kg): absorbed by the dogs and metabolized
SMILES: CC1=C(/C=C/C(C)=C/C=C/C(C)=C/C=C/C=C(C)/C=C/C=C(C)/C=C/C2=C(C)C(=O)[C@@H](OC(=O)[C@@H](N)CCCCN)CC2(C)C)C(C)(C)C[C@H](OC(=O)[C@@H](N)CCCCN)C1=O.Cl.Cl.Cl.Cl (relative stereo) [ADL, all-trans 3S,3′S-astaxanthin diester dilysinate tetrahydrochloride salt]

free astaxanthin in rat plasma [3]: significant amount
absorption and metabolism to astaxanthin in plasma ([2]; dog, in vivo, po, 20 mg/kg): absorbed by the dogs and metabolized
SMILES: CC1=C(/C=C/C(C)=C/C=C/C(C)=C/C=C/C=C(C)/C=C/C=C(C)/C=C/C2=C(C)C(=O)[C@@H](OC(=O)CCC(=O)[O-])CC2(C)C)C(C)(C)C[C@H](OC(=O)CCC(=O)[O-])C1=O.[Na+].[Na+] (relative stereo) [ADS, all-trans 3S,3′S-astaxanthin diester disuccinate disodium salt]
